Data taken from PubChem BioAssay (NCI).
Where “and” joins values, the source holds several entries; their conditions need not be identical. Equal entries are not always repeated.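 Briefly, cells in 96-well plates were exposed to five compound concentrations for 48 h, and endpoints were estimated by linear interpolation. Abbreviation: GI50, concentration required for 50% inhibition of growth. TGI denotes the concentration required for complete inhibition of growth.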

Columns and labels:
Test in all cases: inhibition of tumour cell growth, NCI panel, 48 h
TK-10 renal = system: TK-10 renal
NCI/ADR-RES ovarian = system: NCI/ADR-RES ovarian
HL-60(TB) leukemia = system: HL-60(TB) leukemia
HCT-116 colon = system: HCT-116 colon
SNB-19 CNS = system: SNB-19 CNS
T-47D breast = system: T-47D breast
SW-620 colon = system: SW-620 colon
MALME-3M melanoma = system: MALME-3M melanoma
CAKI-1 renal = system: CAKI-1 renal
NCI-H522 lung = system: NCI-H522 lung

| SMILES | GI50 (TK-10 renal) | TGI (TK-10 renal) | GI50 (NCI/ADR-RES ovarian) | TGI (NCI/ADR-RES ovarian) | GI50 (HL-60(TB) leukemia) | TGI (HL-60(TB) leukemia) | GI50 (HCT-116 colon) | TGI (HCT-116 colon) | GI50 (SNB-19 CNS) | TGI (SNB-19 CNS) [nM] | GI50 (T-47D breast) | TGI (T-47D breast) | GI50 (SW-620 colon) | TGI (SW-620 colon) | GI50 (MALME-3M melanoma) | TGI (MALME-3M melanoma) | GI50 (CAKI-1 renal) | TGI (CAKI-1 renal) | GI50 (NCI-H522 lung) | TGI (NCI-H522 lung) |
| --- | --- | --- | --- | --- | --- | --- | --- | --- | --- | --- | --- | --- | --- | --- | --- | --- | --- | --- | --- | --- |
| Cc1cccc2c(Nc3ccc(NS(C)(=O)=O)cc3)c3ccc([N+](=O)[O-])cc3nc12 | 3160 nM | 17500 nM | 8300 nM | 47100 nM | 2070 nM | 7090 nM | 927 nM | 5240 nM | 456 nM | 14700 | 147 nM | 9320 nM | 870 nM | 3230 nM | 1210 nM | 3430 nM | 2430 nM | 24000 nM | 1110 nM | 2520 nM |
| N/C(=N\c1nc2ccccc2s1)NC(=NC1CCCCC1)NC1CCCCC1 | 1640 nM | 3280 nM | 1640 nM | 3300 nM | 1830 nM | 4350 nM | 1430 nM | 3010 nM | 1590 nM | 3020 | 1840 nM | 4150 nM | 1650 nM | 3330 nM | 1520 nM | 3130 nM | 1530 nM | 2890 nM | 1890 nM | 4220 nM |
| NC(=O)c1cccc(-c2cc(C(N)=O)ccc2Cl)c1 | 9120 nM | > 100000 nM | 1510 nM | 25900 nM | 2420 nM | 5910 nM | 2350 nM | > 100000 nM | 2890 nM | > 100000 | 4560 nM | > 100000 nM | 2140 nM | > 100000 nM | 3980 nM | > 100000 nM | 2660 nM | > 100000 nM | 2390 nM | 23200 nM |
| COc1cccc(CC(C)=C(c2ccc(OCCCN(C)C)cc2)c2ccc(OCCCN(C)C)cc2)c1 | 1350 nM | 3010 nM | 548 nM | 1280 nM | 506 nM | 1020 nM | 447 nM | 839 nM | 905 nM | 3340 | 437 nM | 884 nM | 434 nM | 867 nM | 403 nM | 774 nM | 683 nM | 1950 nM | 452 nM | 1000 nM |
| O=C1CCC(N2C(=O)c3cccc(NCCCC4CCN(CCNC(=O)c5cc6c(o5)C(=O)c5ccccc5C6=O)CC4)c3C2=O)C(=O)N1 (stereo not drawn) | 2250 nM | 4400 nM | 2890 nM | 14700 nM | 858 nM | 6160 nM | 465 nM | 2380 nM | 673 nM | 1970 | 1820 nM | 11000 nM | 450 nM | 1860 nM | 140 nM | 284 nM | 2170 nM | 9130 nM | 1500 nM | 3270 nM |
| O=c1cccc(C#CC#CCCCO)o1 | 2970 nM | 9550 nM | 9470 nM | > 44200 nM | 2240 nM | 5390 nM | 3060 nM | 8490 nM | 9130 nM | 39100 | 3640 nM | 27300 nM | 2670 nM | – | 788 nM | 3780 nM | 2900 nM | 8170 nM | 3550 nM | > 32000 nM |
| C[C@H]1c2ccccc2CN1CCCOc1cc2c(cc1OCC1CC1)C1(CCCC1)C(N)=N2 | 2070 nM | 8260 nM | 2840 nM | 10500 nM | 1210 nM | 3160 nM | 950 nM | 2260 nM | 5650 nM | 11800 | 990 nM | 2500 nM | 977 nM | 2310 nM | 888 nM | 1680 nM | 1790 nM | 7650 nM | 1660 nM | 6620 nM |
| Cc1oc2c(c1C(=O)N1CC[C@@H](N)C1)C(=O)c1c(c(O)c3ccccc3c1O)C2=O | 3070 nM | 16300 nM | 2390 nM | 8560 nM | 1170 nM | 4310 nM | 1280 nM | 4590 nM | 2450 nM | 15700 | 863 nM | 7860 nM | 1080 nM | 7280 nM | 1780 nM | 7620 nM | 611 nM | 11400 nM | 1390 nM | 4770 nM |
| Cc1cc(NC(=O)c2cnc(N3CCN(CCOCCOCCOCCOCCC(=O)N[C@H](C(=O)N4C[C@H](O)C[C@H]4C(=O)N[C@@H](C)c4ccc(-c5scnc5C)cc4)C(C)(C)C)CC3)cn2)c2ncccc2c1 | 10700 nM | 53400 nM | > 100000 nM | > 100000 nM | 2300 nM | 5710 nM | 1790 nM | 3380 nM | 3590 nM | 14700 | 3030 nM | 17900 nM | 2380 nM | 5650 nM | 1760 nM | 3680 nM | 9330 nM | > 100000 nM | 1960 nM | 6160 nM |
| CCOC(=O)C1=C(C)N2C(=NC3=C(CCC/C3=C\c3ccc(Cl)cc3)C2c2ccc(Cl)cc2)S1 (stereo not drawn) | 5230 nM | 65900 nM | 2560 nM | 7040 nM | 3090 nM | 9240 nM | 1400 nM | 2700 nM | 3350 nM | > 100000 | 3610 nM | 28300 nM | 2440 nM | 6390 nM | 11300 nM | 35500 nM | 5080 nM | > 100000 nM | 3840 nM | 17800 nM |
| C=CCn1c(=O)c2cnc(Nc3ccc(N4CCN(C)CC4)cc3)nc2n1-c1cccc(C(C)(C)O)n1 | 100 nM and 310 nM | 5940 nM and > 10000 nM | 2190 nM and 2730 nM | 18600 nM and > 10000 nM | 272 nM and 325 nM | 1350 nM and > 3110 nM | 321 nM and 328 nM | 11400 nM and > 10000 nM | 1170 nM and 526 nM | > 100000 | 2520 nM and 644 nM | > 100000 nM | 316 nM and 448 nM | 12300 nM and > 10000 nM | 1730 nM and 593 nM | 18400 nM and > 10000 nM | 240 nM and 152 nM | 16700 nM and > 10000 nM | 176 nM and 293 nM | 645 nM and 2080 nM |
| Cn1nnc2c(C(N)=O)ncn2c1=O | – | > 100000 nM | – | > 100000 nM | – | > 100000 nM | – | > 100000 nM | – | > 100000 | – | > 100000 nM | – | > 100000 nM | – | > 100000 nM | – | > 100000 nM | – | > 100000 nM |
| C[C@@H]1COCCN1c1cc(-c2ccnn2C)c2ccnc(-c3ccn[nH]3)c2n1 | 71.5 nM and 313 nM | 1570 nM and 7000 nM | 101 nM and 280 nM | 2430 nM and 4780 nM | 106 nM and 194 nM | 660 nM and 3160 nM | 159 nM and 228 nM | 16300 nM and > 59000 nM | 230 nM and 310 nM | > 100000 | 159 nM and 384 nM | 790 nM and 2810 nM | 259 nM and 603 nM | > 100000 nM | 179 nM and 273 nM | 1520 nM and 3700 nM | 125 nM and 223 nM | 900 nM and 1800 nM | 172 nM and 528 nM | – |
| COc1cc(/C=C/[N+](=O)[O-])cc(OC)c1OC | 2490 nM | 6070 nM | 3430 nM | 36700 nM | 4950 nM | 55900 nM | 1890 nM | 3560 nM | 5640 nM | 18400 | 2000 nM | 9600 nM | 1710 nM | 4160 nM | 2290 nM | 6060 nM | 1490 nM | 7390 nM | 1790 nM | 3570 nM |
